Test results reported in paper PMC12089509, “NorA Efflux Pump Inhibitors: Expanding SAR Knowledge of Pyrazolo[4,3‐c][1,2]benzothiazine 5,5‐Dioxide Derivatives” (Archiv Der Pharmazie, 2025).
Values after ≈ are worked out from the molar mass of the structure shown. Read-outs that look alike come from different tables or passages of the source.

Columns and labels:
[1] = system: S. aureus SA-K2378 (norA ++); assay: MIC evaluation against SA-K2378; assay type: cell-based, Staphylococcus aureus; conditions: for MIC: Staphylococcus aureus
Source text: (§1) Conversely, interesting results were obtained against SA‐K2378, which overexpresses the norA gene (Table 2). […] This corroborates the hypothesis that their activity is strictly related to NorA EP inhibition.
(§2) In this study, the S. aureus strains SA‐1199B (overexpressing norA) and its isogenic parent SA‐1199 (wild type), the pair SA‐K1902 (norA‐depleted) and SA‐K2378 (complemented with a pCU1 plasmid harboring the norA promoting and coding region from SA‐1199B), were used to test EPI activity as described in a previous study. Furthermore, the S. aureus ATCC 29213 was used as the reference strain in MIC determination experiments.

[2] = system: Staphylococcus aureus SA-K2378 biofilm; assay type: cell-based
Source text: The formation of biofilms is a significant contributor to the development of AMR [1, 26, 27]. This is due to the fact that biofilms provide a protective environment for bacteria, thereby rendering them more resilient to the effects of common antibacterial agents. Over the years, several investigations have been conducted to study the role of EPs in the various stages of microbial biofilm formation. However, a definitive answer regarding the potential role of EPs in this microbial pathway remains elusive. While some studies have reported a negative effect of certain EPs on biofilm formation, others have highlighted the promising role of EPIs in limiting biofilm formation and enhancing the efficacy of antibiotics under biofilm conditions.
The biofilm production by SA‐K1902 and SA‐K2378 strains was analyzed in flat 96‐well microtiter plates as previously described, with some modifications. […] The microplates were incubated at 37°C for 24 h in static conditions. After incubation, the biofilms were washed three times with distilled water, dried at 60°C for 1 h, and stained with 0,1% crystal violet for 10 min. After staining, the crystal violet was removed and the wells were washed three times with water, dried at 37°C for 30 min, and the bound crystal violet was solubilized with 96% ethanol in shaking conditions. At the end of the destaining, the absorbance (570 nm) of the solutions in each well was measured using the FLUOstar Omega plate reader (BMG‐LABTECH, Germany) to quantify the biofilm produced in each condition compared with the control (biofilm produced by the strain without any compound/antibiotic). Biofilm assays were performed in triplicate for each condition.

[3] = system: S. aureus SA-K1902 (norA-); assay: MIC evaluation against SA-K1902; assay type: cell-based, Staphylococcus aureus; conditions: for MIC: Staphylococcus aureus
Source text: as §1, §2

[4] = system: Staphylococcus aureus SA-1199B; assay: MIC determination (broth microdilution) against SA-1199B; assay type: cell-based; conditions: SA1199B
Source text: as §2

[5] = system: Staphylococcus aureus SA-1199B; assay type: cell-based
Source text: For purposes of comparison, compound 1 was included as a reference.

[6] = molecular target: T1, S. aureus NorA efflux pump (SA-1199B strain, overexpresses the norA gene) (Staphylococcus aureus, UniProt P0A0J7); assay: EtBr efflux inhibition assay; assay type: cell-based; conditions: for inhibition at 10 µM: read-out: EtBr efflux inhibition (%), compound at 10 µM, SA-1199B; for inhibition at 50 µM: read-out: EtBr efflux inhibition (%), compound at 50 µM, SA-1199B
T1 construct: endogenous in cells; host or cells: S. aureus SA-1199B (overexpresses norA; isogenic parent SA-1199)
Method: EtBr efflux inhibition assays were conducted using the S. aureus SA‐1199B strain, which overexpresses the norA gene and has an A116E GrlA substitution. Each compound was tested at 50 µM (see Figure 2). The starting hit compound 1 was used as the internal standard for comparison with the previously reported data.
The cells were grown overnight in cation‐supplemented Mueller–Hinton broth (CAMHB) without any additives at 35°C. The organisms were subsequently diluted into CAMHB to obtain an optical density at 600 nm (OD600) of 0.7–0.8. Subsequently, the cells were pelleted and resuspended at an OD600 of 0.8 in 0.5 mL aliquots of CAMHB containing EtBr and carbonyl cyanide m‐chlorophenylhydrazone (CCCP) to “load” the cells with EtBr (final concentrations of 25 μM for EtBr and 100 μM for CCCP). Following 20 min of incubation at room temperature, the cells were pelleted and resuspended in 1 mL of fresh CAMHB. Immediately thereafter, 200 μL aliquots were transferred into the wells of white 96‐well plates, which either lacked or contained 50 or 10 μM of each test compound. Fluorescence was monitored continuously using a microplate reader (Infinite M200 Pro, TECAN) at excitation and emission wavelengths of 485 and 645 nm, respectively, for a period of 5 min. The experiments were conducted in triplicate, with two technical replicates per biological replicate. The efflux activity of the SA‐1199B strain was expressed as a percentage of fluorescence decrease over a 5‐min time course. The inhibition of this efflux by the test compounds was determined using the following equation: ([efflux in the absence] ‐ [efflux in the presence of test [compound])/[efflux in the absence of test compound] × 100, which yielded the percent efflux inhibition observed.
^a Experiments were performed in triplicate with two technical replicates per biological replicate. Efflux activity of SA-1199B was expressed as percent fluorescence decrease over a 5 min time course. Inhibition of this efflux by test compounds was determined using the equation [efflux in the absence] − [efflux in the presence of test [compound]/[efflux in the absence of test compound] × 100, giving the percent efflux inhibition observed.

[7] = MTT cytotoxicity assay on A549; assay type: cell-based; conditions: human, A549 cells, read-out: Cytotoxicity (% cell viability)
Method: (§3) The MTT assay was performed on two human ATCC cell lines, that is, […] (CCL‐185) and MCF7 (HTB‐22), to test the potential cytotoxic effect of the compounds, after 72 h exposure, as previously described. Each compound was tested at concentrations ranging from 12.5 to 100 μg/mL. Untreated cells were considered as controls. The percentage of viable cells was calculated as follows: % Cell viability = 100 × treated well absorbance/untreated control well absorbance. All assays were performed once in technical quadruplicate.

[8] = MTT cytotoxicity assay on MCF7; assay type: cell-based; conditions: human, MCF7 cells, read-out: Cytotoxicity (% cell viability)
Method: as §3

[9] = system: S. aureus SA-K2378 (norA ++); assay: Checkerboard assay EPI/CPX against SA-K2378; assay type: cell-based, Staphylococcus aureus
Method: as §1
(§4) Checkerboard assays were carried out using SA‐K1902 and SA‐K2378 strains according to standard procedures.

[10] = system: S. aureus SA-K1902 (norA-); assay: Checkerboard assay EPI/CPX against SA-K1902; assay type: cell-based, Staphylococcus aureus
Method: as §4

[11] = system: S. aureus SA-1199 (wild type); assay: Synergistic assay with CPX against wild-type SA-1199; assay type: cell-based, Staphylococcus aureus; conditions: EPI at 3.13 µg/mL with CPX
Source text: (§5) This finding aligns with their mechanism of action, which involves the inhibition of NorA, which is only basally expressed in the wild‐type SA‐1199 strain.

[12] = system: S. aureus SA-1199 (wild type); assay: MIC determination against wild-type SA-1199; assay type: cell-based; conditions: Staphylococcus aureus, compound alone
Source text: as §5

T1 sequence (P0A0J7 whole entry): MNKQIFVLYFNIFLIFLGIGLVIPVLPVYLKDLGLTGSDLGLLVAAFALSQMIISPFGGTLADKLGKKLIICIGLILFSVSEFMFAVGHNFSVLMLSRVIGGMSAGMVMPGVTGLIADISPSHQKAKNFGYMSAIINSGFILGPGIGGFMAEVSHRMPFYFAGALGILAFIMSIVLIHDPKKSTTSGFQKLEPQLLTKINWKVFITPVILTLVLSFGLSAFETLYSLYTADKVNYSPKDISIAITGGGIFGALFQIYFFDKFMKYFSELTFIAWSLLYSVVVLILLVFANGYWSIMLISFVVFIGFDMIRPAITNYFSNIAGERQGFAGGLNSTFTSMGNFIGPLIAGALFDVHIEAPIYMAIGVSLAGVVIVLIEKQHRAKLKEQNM

Structure (SMILES)	MIC [4] [µg/mL]	N° fold CPX MIC reduction ([5]; EPI at 3.12 µg/mL) [fold]	N° fold CPX MIC reduction ([5]; EPI at 12.5 µg/mL) [fold]	inhibition at 10 µM [6] [%]	inhibition at 50 µM [6] [%]	CPX MIC ([9]; EPI at 0.8 µg/mL) [µg/mL]	N° CPX MIC reduction ([9]; EPI at 0.8 µg/mL)	CPX MIC ([9]; EPI at 1.6 µg/mL) [µg/mL]	N° CPX MIC reduction ([9]; EPI at 1.6 µg/mL)	CPX MIC ([9]; EPI at 3.13 µg/mL) [µg/mL]	N° CPX MIC reduction ([9]; EPI at 3.13 µg/mL)	MIC [1] [µg/mL]	MIC [3] [µg/mL]	CPX MIC ([10]; EPI at 0.8 µg/mL) [µg/mL]	N° CPX MIC reduction ([10]; EPI at 0.8 µg/mL)	CPX MIC ([10]; EPI at 1.6 µg/mL) [µg/mL]	N° CPX MIC reduction ([10]; EPI at 1.6 µg/mL)	CPX MIC ([10]; EPI at 3.13 µg/mL) [µg/mL]	N° CPX MIC reduction ([10]; EPI at 3.13 µg/mL)	other results
O=C(O)c1cn(C2CC2)c2cc(N3CCNCC3)c(F)cc2c1=O [CPX, ciprofloxacin, reference compound]	10 (≈ 30.2 µM)	–	–	–	–	–	–	–	–	–	–	–	–	–	–	–	–	–	–	CPX MIC ([1]; CPX alone, SA-K2378 (norA ++)): 1.25 µg/mL; increase in biofilm formation ([2]; CPX alone at ½ MIC, vs untreated control): 42%; CPX MIC ([3]; CPX alone, SA-K1902 (norA-)): 0.15 µg/mL
O=[N+]([O-])c1ccc(-n2nc(-c3ccc(Cl)cc3)c3c2-c2ccccc2S(=O)(=O)N3)cc1 [Compound 1, reference compound]	50 (≈ 110 µM)	2	16	0	77	0.6	2	0.3	4	0.3	4	12.5 (≈ 27.6 µM)	12.5 (≈ 27.6 µM)	0.15	0	0.15	0	0.15	0	N° fold CPX MIC reduction ([5]; EPI at 6.25 µg/mL): 8 fold; viability at 72 h, 12.5 µg/mL ([7]; A549, 12.5 μg/mL): 90 ± 16%; viability at 72 h, 25 µg/mL ([7]; A549, 25 μg/mL): 76 ± 1%; viability at 72 h, 50 µg/mL ([7]; A549, 50 μg/mL): 32 ± 5%; viability at 72 h, 100 µg/mL ([7]; A549, 100 μg/mL): 8 ± 1%; viability at 72 h, 12.5 µg/mL ([8]; MCF7, 12.5 μg/mL): 81 ± 6%; viability at 72 h, 25 µg/mL ([8]; MCF7, 25 μg/mL): 71 ± 3%; viability at 72 h, 50 µg/mL ([8]; MCF7, 50 μg/mL): 50 ± 3%; viability at 72 h, 100 µg/mL ([8]; MCF7, 100 μg/mL): 43 ± 3%
CN1c2c(-c3ccc(F)cc3)nn(C)c2-c2ccc(OCCN3CCOCC3)cc2S1(=O)=O [Compound 19, 3‐(4‐Fluorophenyl)‐1,4‐dimethyl‐7‐(2‐morpholin‐4‐ylethoxy)‐1,4‐dihydropyrazolo[4,3‐c][1,2]benzothiazine 5,5‐dioxide]	> 50	2	4	34	> 70	0.3	4	0.3	4	0.3	4	25 (≈ 52.9 µM)	> 50	0.08	2	0.08	2	0.08	2	synergistic effect with CPX [11]: did not show any synergistic effect; CPX MIC ([9]; EPI at 0.2 µg/mL): 0.3 µg/mL; N° CPX MIC reduction ([9]; EPI at 0.2 µg/mL): 4; CPX MIC ([9]; EPI at 0.4 µg/mL): 0.3 µg/mL; N° CPX MIC reduction ([9]; EPI at 0.4 µg/mL): 4; CPX MIC ([9]; EPI at 6.25 µg/mL): 0.16 µg/mL; N° CPX MIC reduction ([9]; EPI at 6.25 µg/mL): 8; effect on biofilm formation in combination with CPX ([2]; EPI at 0.2 µg/mL combined with CPX, SA-K2378): no positive effects; MIC [12]: > 50 µg/mL; CPX MIC ([10]; EPI at 0.2 µg/mL): 0.08 µg/mL; N° CPX MIC reduction ([10]; EPI at 0.2 µg/mL): 2; CPX MIC ([10]; EPI at 0.4 µg/mL): 0.08 µg/mL; N° CPX MIC reduction ([10]; EPI at 0.4 µg/mL): 2; CPX MIC ([10]; EPI at 6.25 µg/mL): 0.08 µg/mL; N° CPX MIC reduction ([10]; EPI at 6.25 µg/mL): 2; CPX MIC ([10]; EPI at 12.5 µg/mL): 0.15 µg/mL; N° CPX MIC reduction ([10]; EPI at 12.5 µg/mL): 0
